Data taken from PubChem BioAssay AID330 (DTP/NCI, 2004).
Where “and” joins values, the source holds several entries; their conditions need not be identical. Equal entries are not always repeated. Inconclusive results and toxic doses are left out. The calls were made as follows: active = survival T/C of 150% or more; inactive = T/C below 125% in these data.

System: P388 leukemia ip, CD2F1 mice, survival T/C
Assay: NCI In Vivo Anticancer Drug Screen. Data for tumor model P388 Leukemia (intraperitoneal) in CD2F1 (CDF1) mice
Settings: endpoint: median survival time, higher = longer survival
Outline: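 Mice carrying the transplanted tumor received test compound or vehicle. Survival was recorded in each group, and the value is the treated-group measurement divided by that of the vehicle-treated control group.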

[1] = dose: 100.0 mg/kg/injection, schedule: Q04DX003 (ip), vehicle: Klucel (hydroxypropylcellulose) (HPC)
[2] = dose: 200.0 mg/kg/injection, schedule: Q04DX003 (ip), vehicle: Klucel (hydroxypropylcellulose) (HPC)
[3] = dose: 50.0 mg/kg/injection, schedule: Q01DX005 (ip), vehicle: Klucel (hydroxypropylcellulose) (HPC)
[4] = dose: 100.0 mg/kg/injection, schedule: Q01DX005 (ip), vehicle: Klucel (hydroxypropylcellulose) (HPC)

Measured: T/C

COc1cc(CO)c(CO)cc1OC
inactive: dose: 0.75 mg/kg/injection, schedule: Q01DX005 (ip), vehicle: saline 93 % of control | dose: 1.5 mg/kg/injection, schedule: Q01DX005 (ip), vehicle: saline 95 % of control | dose: 3.0 mg/kg/injection, schedule: Q01DX005 (ip), vehicle: saline 93 % of control | dose: 3.12 mg/kg/injection, schedule: Q01DX005 (ip), vehicle: saline 98 % of control

Cc1cc2c(cc1CC(=O)O)CC(=O)NC2
inactive: dose: 1.56 mg/kg/injection, schedule: Q01DX009 (ip), vehicle: distilled water + Tween-80 109 % of control | dose: 3.13 mg/kg/injection, schedule: Q01DX009 (ip), vehicle: distilled water + Tween-80 104 % of control | dose: 6.25 mg/kg/injection, schedule: Q01DX009 (ip), vehicle: distilled water + Tween-80 123 % of control and 95 % of control | dose: 12.5 mg/kg/injection, schedule: Q01DX009 (ip), vehicle: distilled water + Tween-80 101 % of control | dose: 25.0 mg/kg/injection, schedule: Q01DX009 (ip), vehicle: distilled water + Tween-80 101 % of control and 96 % of control | dose: 50.0 mg/kg/injection, schedule: Q01DX009 (ip), vehicle: distilled water + Tween-80 104 % of control and 96 % of control | dose: 100.0 mg/kg/injection, schedule: Q01DX009 (ip), vehicle: distilled water + Tween-80 102 % of control and 95 % of control | dose: 200.0 mg/kg/injection, schedule: Q01DX009 (ip), vehicle: distilled water + Tween-80 100 % of control | dose: 400.0 mg/kg/injection, schedule: Q01DX009 (ip), vehicle: distilled water + Tween-80 92 % of control

C[CH2][Sn]1([CH2]C)[O]C(=O)CC(=O)[O]1
inactive: dose: 1.56 mg/kg/injection, schedule: Q04DX003 (ip), vehicle: saline 105 % of control and 120 % of control | dose: 3.12 mg/kg/injection, schedule: Q04DX003 (ip), vehicle: saline 115 % of control and 118 % of control | dose: 6.25 mg/kg/injection, schedule: Q04DX003 (ip), vehicle: saline 114 % of control and 124 % of control | dose: 12.5 mg/kg/injection, schedule: Q04DX003 (ip), vehicle: saline 109 % of control

O=C(NC1(OC(=O)c2ccc(Cl)cc2)CC1)c1ccc(Cl)cc1
inactive: dose: 60.0 mg/kg/injection, schedule: Q01DX005 (ip), vehicle: Klucel (hydroxypropylcellulose) (HPC) 103 % of control | dose: 120.0 mg/kg/injection, schedule: Q01DX005 (ip), vehicle: Klucel (hydroxypropylcellulose) (HPC) 104 % of control | dose: 240.0 mg/kg/injection, schedule: Q01DX005 (ip), vehicle: Klucel (hydroxypropylcellulose) (HPC) 89 % of control

CCC/C(=N\O)C(O)(CCC)CCC
inactive: dose: 50.0 mg/kg/injection, schedule: Q01DX009 (ip), vehicle: saline with Tween-80 89 % of control | dose: 100.0 mg/kg/injection, schedule: Q01DX009 (ip), vehicle: saline with Tween-80 89 % of control | dose: 200.0 mg/kg/injection, schedule: Q01DX009 (ip), vehicle: saline with Tween-80 89 % of control

COc1ccc(Sc2c(C(=O)O)cccc2C(=O)O)cc1
inactive: dose: 100.0 mg/kg/injection, schedule: Q04DX002 (ip), vehicle: saline with Tween-80 102 % of control | dose: 200.0 mg/kg/injection, schedule: Q04DX002 (ip), vehicle: saline with Tween-80 100 % of control | dose: 400.0 mg/kg/injection, schedule: Q04DX002 (ip), vehicle: saline with Tween-80 101 % of control

C/C(=C/c1ccccc1)C(=O)C1C(c2ccccc2)CC(O)C(C)C1c1ccccc1 (stereo unspecified)
inactive: [1] 93 % of control | [2] 88 % of control

O=C(Nc1ccccc1)Nc1ccccc1C(=O)O
inactive: dose: 50.0 mg/kg/injection, schedule: Q04DX003 (ip), vehicle: Klucel (hydroxypropylcellulose) (HPC) 100 % of control | [1] 107 % of control | [2] 109 % of control | dose: 400.0 mg/kg/injection, schedule: Q04DX003 (ip), vehicle: Klucel (hydroxypropylcellulose) (HPC) 93 % of control

CC(NC(=O)C(CO)NC(=O)c1cnc2ccccc2n1)C(=O)OC(C)(C)C (stereo unspecified)
inactive: dose: 60.0 mg/kg/injection, schedule: Q01DX005 (ip), vehicle: DMSO 98 % of control | dose: 120.0 mg/kg/injection, schedule: Q01DX005 (ip), vehicle: DMSO 99 % of control | dose: 240.0 mg/kg/injection, schedule: Q01DX005 (ip), vehicle: DMSO 109 % of control

C1=CC=CCC=C1
inactive: dose: 12.5 mg/kg/injection, schedule: Q01DX009 (ip), vehicle: saline with Tween-80 120 % of control

CC(=O)OCC(=O)[C@@]1(O)CC[C@H]2[C@@H]3CCC4=CC(=O)[C@H](C)C[C@]4(C)[C@H]3[C@@H](O)C[C@@]21C
inactive: dose: 100.0 mg/kg/injection, schedule: Q04DX003 (ip), vehicle: other 100 % of control | dose: 200.0 mg/kg/injection, schedule: Q04DX003 (ip), vehicle: other 100 % of control | dose: 400.0 mg/kg/injection, schedule: Q04DX003 (ip), vehicle: other 115 % of control

CCC(/C=C/c1ccc(OC)cc1)=N/Nc1ccccc1
inactive: dose: 30.0 mg/kg/injection, schedule: Q01DX005 (ip), vehicle: other 109 % of control | dose: 60.0 mg/kg/injection, schedule: Q01DX005 (ip), vehicle: other 100 % of control | dose: 120.0 mg/kg/injection, schedule: Q01DX005 (ip), vehicle: other 103 % of control and 109 % of control | dose: 240.0 mg/kg/injection, schedule: Q01DX005 (ip), vehicle: other 113 % of control

CCOc1cccc2nncn12
inactive: dose: 100.0 mg/kg/injection, schedule: Q01DX001 (ip), vehicle: saline 102 % of control | dose: 200.0 mg/kg/injection, schedule: Q01DX001 (ip), vehicle: saline 103 % of control

Cn1c(C2CCC(=O)N2Cc2ccccc2)n[nH]c1=S (stereo unspecified)
inactive: dose: 60.0 mg/kg/injection, schedule: Q01DX005 (ip), vehicle: saline with Tween-80 101 % of control | dose: 120.0 mg/kg/injection, schedule: Q01DX005 (ip), vehicle: saline with Tween-80 101 % of control | dose: 240.0 mg/kg/injection, schedule: Q01DX005 (ip), vehicle: saline with Tween-80 100 % of control

Nc1ccc(S(=O)(=O)Nc2cnc3c(Cl)cccc3n2)cc1
inactive: dose: 50.0 mg/kg/injection, schedule: Q01DX005 (ip), vehicle: DMSO 98 % of control and 99 % of control | [3] 108 % of control | dose: 100.0 mg/kg/injection, schedule: Q01DX005 (ip), vehicle: DMSO 108 % of control and 116 % of control | [4] 106 % of control | dose: 200.0 mg/kg/injection, schedule: Q01DX005 (ip), vehicle: DMSO 121 % of control | dose: 200.0 mg/kg/injection, schedule: Q01DX005 (ip), vehicle: Klucel (hydroxypropylcellulose) (HPC) 111 % of control | dose: 400.0 mg/kg/injection, schedule: Q01DX005 (ip), vehicle: DMSO 120 % of control

CCOC(=O)c1c(C(=O)OCC)c(C)n(/N=N/n2c(C)c(C(=O)OCC)c(C(=O)OCC)c2C)c1C
inactive: [3] 103 % of control | [4] 87 % of control

O=[N+]([O-])c1ccc(CS(=O)(=O)c2ccccc2)o1
inactive: dose: 50.0 mg/kg/injection, schedule: Q01DX009 (ip), vehicle: suspension in saline 103 % of control | dose: 100.0 mg/kg/injection, schedule: Q01DX009 (ip), vehicle: suspension in saline 100 % of control | dose: 200.0 mg/kg/injection, schedule: Q01DX009 (ip), vehicle: suspension in saline 105 % of control

O=C1CN(CCN2CCOCC2)CC(=O)N2CCCCN12
inactive: dose: 50.0 mg/kg/injection, schedule: Q01DX005 (ip), vehicle: saline 99 % of control | dose: 100.0 mg/kg/injection, schedule: Q01DX005 (ip), vehicle: saline 102 % of control | dose: 200.0 mg/kg/injection, schedule: Q01DX005 (ip), vehicle: saline 107 % of control

CCOC(=O)c1c(SCC)c(C=C(C(C)=O)C(C)=O)c2ccccn12
inactive: dose: 100.0 mg/kg/injection, schedule: Q01DX001 (ip), vehicle: saline with Tween-80 99 % of control | dose: 200.0 mg/kg/injection, schedule: Q01DX001 (ip), vehicle: saline with Tween-80 95 % of control | dose: 400.0 mg/kg/injection, schedule: Q01DX001 (ip), vehicle: saline with Tween-80 89 % of control
